{"source": "patent US8778437B2", "about": "“Taste improving substances” (Givaudan Nederland Services B.V., priority 2004, dated 2014)", "test_system": "panel", "test": "Panel comparison of carbonated lemonade with and without test substance (Example 3)", "assay_type": "in vivo", "conditions": "0.03 wt.% of spray dried sample of Example 2 in carbonated lemonade (10% sugar, 1200 ppm citric acid, 100 ppm ascorbic acid, pH 3)", "experimental": "A basic carbonated lemonade containing 10% sugar, 1200 ppm citric acid and 100 ppm ascorbic acid, was prepared. The pH of the lemonade was 3. This was used as the control. To the test lemonade the spray dried sample described in Example 2 was added in an amount of 0.03 wt. %. The two lemonades were compared by a panel."}
{"smiles": "CC(O)C(=O)NCCOP(=O)(O)O", "note": "(stereo not shown) [N-lactoyl-ethanolaminie-phosphate, N-Lactoyl ethanolamine phosphate]", "values": [{"measurement": "taste description of lemonade compared with control", "result": "more acidic, more natural, more juicy, more complex"}]}
